In patent publication US11230538B2, “Herbicides” (SYNGENTA PARTICIPATIONS AG, priority 2016, dated 2022):

Legend:
Assay type in all cases: in vivo
[1] = tested on: Alopecurus myosuroides (ALOMY); assay: B1 Pre-emergence herbicidal activity; parameters: key: 5=total damage to plant; 0=no damage to plant; settings: pre-emergence application, rate 1000 g/ha, evaluated after 13 days
Method in brief: (§1)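 Sow in soil → 1 d glasshouse (24/16 °C, 14 h light, 65% RH) → spray pre-emergence (acetone/water 50:50, 0.5% Tween 20) → grow 13 d, water twice daily → score 0–5 (5 = total damage).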

Avena fatua (AVEFA) [2] = assay: B1 Pre-emergence herbicidal activity; parameters: key: 5=total damage to plant; 0=no damage to plant; settings: pre-emergence application, rate 1000 g/ha, evaluated after 13 days
Method in brief: as §1

[3] = tested on: Triticum aestivium (TRZAW); assay: B1 Pre-emergence herbicidal activity; parameters: key: 5=total damage to plant; 0=no damage to plant; settings: pre-emergence application, rate 1000 g/ha, evaluated after 13 days
Method in brief: as §1

[4] = tested on: Echinochloa crus-galli (ECHCG); assay: B1 Pre-emergence herbicidal activity; parameters: key to Pre-emergence herbicidal activity, ECHCG (damage score 0-5): 5=total damage to plant; 0=no damage to plant; settings: pre-emergence application, rate 1000 g/ha, evaluated after 13 days
Method in brief: as §1

Lolium perenne (LOLPE) [5] = assay: B1 Pre-emergence herbicidal activity; parameters: key to Pre-emergence herbicidal activity, LOLPE (damage score 0-5): 5=total damage to plant; 0=no damage to plant; settings: pre-emergence application, rate 1000 g/ha, evaluated after 13 days
Method in brief: as §1

Setaria fabenr (SETFA) = assay: B1 Pre-emergence herbicidal activity; parameters: key to Pre-emergence herbicidal activity, SETFA (damage score 0-5): 5=total damage to plant; 0=no damage to plant; settings: pre-emergence application, rate 1000 g/ha, evaluated after 13 days
Method in brief: as §1

Avena fatua (AVEFA) [6] = assay: B2 Post-emergence herbicidal activity; settings: post-emergence application, rate 1000 g/ha, evaluated after 13 days
Method in brief: (§2)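 Test seeds are sown in standard soil and raised for 8 days under controlled glasshouse conditions (24/16 °C, 14 h light, 65% humidity). Foliage is then sprayed with compound formulated in 50:50 acetone/water plus 0.5% Tween 20, and plants are rated 0–5 for damage after 13 days.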

[7] = tested on: Echinochloa crus-galli (ECHCG); assay: B2 Post-emergence herbicidal activity; parameters: key to Post-emergence herbicidal activity, ECHCG (damage score 0-5): 5=total damage to plant; 0=no damage to plant; settings: post-emergence application, rate 1000 g/ha, evaluated after 13 days
Method in brief: as §2

Lolium perenne (LOLPE) [8] = assay: B2 Post-emergence herbicidal activity; settings: post-emergence application, rate 1000 g/ha, evaluated after 13 days
Method in brief: as §2

[9] = tested on: Alopecurus myosuroides (ALOMY); assay: B2 Post-emergence herbicidal activity; parameters: key: 5=total damage to plant; 0=no damage to plant; settings: post-emergence application, rate 1000 g/ha, evaluated after 13 days
Method in brief: as §2

Setaria fabenri (SETFA) = assay: B2 Post-emergence herbicidal activity; parameters: key: 5=total damage to plant; 0=no damage to plant; settings: post-emergence application, rate 1000 g/ha, evaluated after 13 days
Method in brief: as §2

[10] = tested on: Triticum aestivium (TRZAW); assay: B2 Post-emergence herbicidal activity; parameters: key: 5=total damage to plant; 0=no damage to plant; settings: post-emergence application, rate 1000 g/ha, evaluated after 13 days
Method in brief: as §2

SMILES	Pre-emergence herbicidal activity, ALOMY (damage score 0-5) [1]	Pre-emergence herbicidal activity, AVEFA (damage score 0-5) (Avena fatua (AVEFA) [2])	Pre-emergence herbicidal activity, TRAZW (damage score 0-5) [3]	Pre-emergence herbicidal activity, ECHCG (damage score 0-5) [4]	Pre-emergence herbicidal activity, LOLPE (damage score 0-5) (Lolium perenne (LOLPE) [5])	Pre-emergence herbicidal activity, SETFA (damage score 0-5) (Setaria fabenr (SETFA))	Post-emergence herbicidal activity, AVEFA (damage score 0-5) (Avena fatua (AVEFA) [6])	Post-emergence herbicidal activity, ECHCG (damage score 0-5) [7]	Post-emergence herbicidal activity, LOLPE (damage score 0-5) (Lolium perenne (LOLPE) [8])	Post-emergence herbicidal activity, ALOMY (damage score 0-5) [9]	Post-emergence herbicidal activity, SETFA (damage score 0-5) (Setaria fabenri (SETFA))	Post-emergence herbicidal activity, TRAZW (damage score 0-5) [10]
O=C(Nc1ccc(-c2cncc(F)c2)nc1C(F)(F)F)c1cc(F)c(F)cc1F [Compound C33]	0	1	0	1	1	2	2	2	1	0	3	0
COC(=O)CCC(=O)N(C(=O)CCC(=O)OC)c1ccc(-c2cncc(F)c2)nc1C(F)(F)F [Compound C119]	0	2	0	5	1	5	4	5	3	1	5	3
O=C(Nc1ccc(-c2cncnc2)nc1C(F)(F)F)C(Cl)(Cl)Cl [Compound C60]	0	2	0	3	0	5	3	4	3	0	4	0
CCC(=O)Nc1ccc(-c2cncc(F)c2)nc1C(F)(F)F [Compound C13]	1	2	0	4	3	5	4	5	4	1	5	0
O=C(Nc1ccc(-c2cncc(F)c2)nc1C(F)(F)F)c1ccccc1F [Compound C46]	0	1	0	2	1	4	2	3	1	0	4	0
CCC(=O)N(C)c1ccc(-c2cncc(F)c2)nc1C(F)(F)F [Compound C15, N-[6-(5-fluoro-3-pyridyl)-2-(trifluoromethyl)-3-pyridyl]-N-methyl-propanamide]	0	0	0	5	1	5	3	5	3	1	5	1
CC(=O)N(C(C)=O)c1ccc(-c2cncc(F)c2)nc1C(F)(F)F [Compound C5, N-acetyl-N-[6-(5-fluoro-3-pyridyl)-2-(trifluoromethyl)-3-pyridyl]acetamide]	1	3	0	4	1	5	4	4	4	1	5	0
O=C(Nc1ccc(-c2cncc(F)c2)nc1C(F)(F)F)C1CC1 [Compound C59]	0	3	0	4	1	5	3	5	3	1	4	0
